In data set [1] the test system is whole blood clotting on collagen/tissue factor (platelet and fibrin deposition). Briefly: DOAC reversal and detection in blood of DOAC-treated patients (microfluidic platelet and fibrin signal). The note with it: 5,000 nM matching DOAC added ex vivo to patient blood, all subjects. In kind it is cell-based, human. From the text:
Platelets were labeled in whole blood by the addition of an AlexaFluor 488-conjugated anti-CD61 molecule (Bio-Rad Laboratories) and fibrin was quantified via the addition of AlexaFluor 594-conjugated fibrinogen (Life Technologies Co.), as previously described. Chips were mounted on a Lumascope 620 (Etaluma Inc.) LED epifluorescence microscope with a 2.5× objective (Meiji Techno). Each chip was primed with 1% bovine serum albumin (BSA) in HEPES-buffered saline (HBS) to passivate the surfaces ( Fig. 1A ). A volume of 60 μL of whole blood was added to each inlet well. A vacuum pressure of 140 mbar was applied to the outlet to yield an initial wall shear rate of 200 s ^−1 . Fluorescence images were captured at 10 s intervals for green and red LED channels to obtain kinetic data for platelet and fibrin deposition on the collagen/TF zone for up to 25 min. Images were analyzed with ImageJ to calculate the average pixel brightness of an inner 200 μm by 200 μm region within each clot.
For DOAC-treated patients on either rivaroxaban or apixaban, blood samples were obtained and analyzed, using the microfluidic device to measure platelets and fibrin deposition under flow as described above. […] For subjects 1 through 19, fluorescence data were collected for 15 minutes. […]
Statistical significance was calculated for paired t -tests, using GraphPad Prism 9 (GraphPad Software). […]

Details of data set [2]: method as in PMID 31089975, PMID 23999929. Conditions: cited from earlier work.

As for `COc1ccc(-n2nc(C(N)=O)c3c2C(=O)N(c2ccc(N4CCCCC4=O)cc2)CC3)cc1` [apixaban], the fibrin signal entry in data set [1] was “nearly fully suppressed”. In data set [2], the plasma protein binding result was “high”.
`O=C(NC[C@H]1CN(c2ccc(N3CCOCC3=O)cc2)C(=O)O1)c1ccc(Cl)s1` [rivaroxaban]: the fibrin signal result in data set [1] is listed as “nearly fully suppressed”. For the same molecule, the plasma protein binding result in data set [2] was “high”.

Source of the values: paper PMC11967380, “Rapid Determination of Xa Inhibitor Activity in Blood Using a Microfluidic Device that Measures Platelet Deposition and Fibrin Generation Under Flow” (TH Open: Companion Journal to Thrombosis and Haemostasis, 2025).
